{"source": "patent US12329745B2", "about": "“Methods and compositions for treating glucocorticoid excess” (Sparrow Pharmaceuticals, Inc., priority 2022, dated 2025)", "key": {"[1]": {"target": "T1, HSD-1 (Homo sapiens, UniProt P28845)", "T1 sequence (P28845 whole entry)": "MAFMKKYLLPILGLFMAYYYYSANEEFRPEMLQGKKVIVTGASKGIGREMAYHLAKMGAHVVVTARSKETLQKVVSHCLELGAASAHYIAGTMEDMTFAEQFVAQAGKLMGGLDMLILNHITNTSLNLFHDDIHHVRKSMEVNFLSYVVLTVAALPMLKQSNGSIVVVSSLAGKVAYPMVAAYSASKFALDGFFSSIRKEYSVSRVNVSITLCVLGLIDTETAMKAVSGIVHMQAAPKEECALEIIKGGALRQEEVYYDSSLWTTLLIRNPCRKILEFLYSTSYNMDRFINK", "test": "Target-mediated drug disposition (TMDD) population PK / PK-PD model"}, "[2]": {"target": "T1, HSD-1", "test": "Surface plasmon resonance binding kinetics in presence of NADPH (residence time)", "settings": "300 μM NADPH; reciprocal of the dissociation rate constant; read-out: Residence Time (converted)", "text": "Pseudo-irreversible HSD-1 inhibitors can be identified via in vitro enzyme kinetics evaluation, in which they are expected to show longer enzyme residence times compared to other HSD-1 inhibitors. Surface plasmon resonance (SPR) is the resonant oscillation of conduction electrons at the interface between negative and positive permittivity material stimulated by incident light. When a protein is bound to a surface, SPR can be used to detect ligand binding to the protein. […] Association and dissociation of test compounds were monitored in the presence of 300 µM NADPH throughout the experiment."}, "[3]": {"test_system": "urine tetrahydrocortisone", "test": "Urine tetrahydrocortisone (excreted cortisone metabolite; liver cortisone levels)", "assay_type": "in vivo, human", "settings": "healthy adults", "protocol": "In healthy adults administered a single dose of 10, 20, or 50 mg SPI-62 (n=40), the least squares mean (standard error) tetrahydrocortisone was 32.71 (1.149) […] compared to 9.19 (2.300) mol after a single dose of matching placebo (n=10). In the same subjects after 14 daily doses, tetrahydrocortisone was 42.73 (1.968) mol for SPI-62 and 8.51 (0.410) mol for placebo. Similar results were also observed in elderly adults."}, "[4]": {"test": "Human plasma pharmacokinetics of SPI-62", "assay_type": "in vivo", "settings": "for Cmax: human, plasma, oral", "protocol": "The single- and multiple-dose pharmacokinetics of SPI-62 were well-characterized by a two-compartment TMDD population pharmacokinetics model with 3 transit absorption compartments and an estimated target capacity of ˜2.5 mg of SPI-62 which comports well with the dose range in which pharmacokinetic nonlinearity is prominent."}, "[5]": {"test_system": "C57BL/6 male mice", "test": "Mitigation of corticosterone (CORT) adverse effects in mouse", "assay_type": "in vivo", "settings": "for Fat depot weight, Gonadal, Mean / Fat depot weight, Mesenteric, Mean / Fat depot weight, Retroperitoneal, Mean / Fat depot weight, Subcutaneous, Mean / Muscle weight, Quadriceps, Mean / Muscle weight, Tibialis anterior, Mean: post-mortem Day 36", "protocol": "A control group received no CORT or SPI-62. Body weight was assessed daily and food consumption twice weekly. Whole body muscle and fat amounts were measured at Days 0, 14, and 28 using an EchoMRI-130H body composition analyzer. Blood samples for fasting glucose and insulin were obtained at Days 1 (pre-dose), 15, 29, and 35. An open field test was conducted on Day 22. A grip strength test was performed on Day 28. After sacrifice on Day 36, gonadal, subcutaneous, retroperitoneal, and mesenteric fat, quadriceps, and tibialis anterior were dissected and weighed, and skin was formalin fixed and paraffin embedded."}}, "note": "Read-outs that look alike come from different tables or passages of the source. Marks after values point to notes of the source that are not given here.", "data": [{"smiles": "Cn1c(-c2ccc(C(N)=O)cc2F)nnc1C(C)(C)Oc1c(F)cc(Cl)cc1F", "note": "[SPI-62, 4-(5-(2-(4-chloro-2,6-difluorophenoxy)propan-2-yl)-4-methyl-4H-1,2,4-triazol-3-yl)-3-fluorobenzamide]", "values": [{"measurement": "IC50", "setting": "[1]", "value": 0.0234, "unit": "nM"}, {"measurement": "Kd", "setting": "[1]", "value": 0.183, "unit": "nM"}, {"measurement": "estimated total target amount (RTOT+RTA) as SPI-62", "setting": "[1]; both, human, in vivo", "value": 3.6, "unit": "mg"}, {"measurement": "Kd lower than the Ki", "setting": "[1]; in vivo", "value": "approximately 60 fold"}, {"measurement": "estimated Kd lower than Ki for purified human HSD-1", "setting": "[1]; in vivo", "value": 29, "unit": "fold"}, {"measurement": "estimated Kd lower than measured Ki for human HSD-1 expressed in CHO cells", "setting": "[1]; in vivo", "value": 69, "unit": "fold"}, {"measurement": "Hill coefficient", "setting": "[1]; model parameter estimate", "value": 1.42}, {"measurement": "association rate constant (kon)", "setting": "[1]; model parameter estimate", "value": 400000, "unit": "M⁻¹ s⁻¹"}, {"measurement": "total target amount in the adipose compartment (RTA)", "setting": "[1]; model parameter estimate", "value": 671, "unit": "nM"}, {"measurement": "koff", "setting": "[1]; read-out: dissociation rate constant (koff)", "value": "7.33e-05", "unit": "s⁻¹"}, {"measurement": "residence time", "setting": "[2]", "value": 8.92, "unit": "min"}, {"measurement": "urine tetrahydrocortisone, least squares mean (standard error)", "setting": "[3]; after 14 daily doses", "value": "42.73 (1.968) mol"}, {"measurement": "urine tetrahydrocortisone, least squares mean (standard error)", "setting": "[3]; single dose of 10, 20, or 50 mg (n=40)", "value": "32.71 (1.149) mol"}, {"measurement": "unbound concentration corresponding to Cmax", "setting": "[4]; 0.2 mg daily for 14 days", "value": "< 0.25", "unit": "nM"}, {"measurement": "plasma levels after 14 days of dosing, dose proportionality", "setting": "[4]; doses of 0.2 to 50 mg", "value": "approximately dose-proportional"}, {"measurement": "Cmax", "setting": "[4]; 0.2 mg, 0.2 mg daily for 14 days, last dosing day, read-out: mean maximum plasma drug concentration (Cmax)", "value": "< 1", "unit": "ng/mL"}, {"measurement": "Cmax", "setting": "[4]; 1 mg, single dose 1 mg, read-out: mean Cmax", "value": "< 0.05", "unit": "ng/mL"}, {"measurement": "Cmax", "setting": "[4]; multiple doses 0.2 to 50 mg, read-out: Cmax means", "value": "1 to 835", "unit": "ng/mL"}, {"measurement": "Cmax", "setting": "[4]; single doses of 6 to 60 mg, read-out: Cmax means", "value": "28 to 595", "unit": "ng/mL"}, {"measurement": "plasma drug levels (all below the LLOQ)", "setting": "[4]; single 1 mg dose", "value": "< 0.1", "unit": "ng/mL"}, {"measurement": "unbound concentration corresponding to Cmax", "setting": "[4]; single dose 1 mg", "value": "< 0.012", "unit": "nM"}, {"measurement": "plasma exposures after single doses, dose proportionality", "setting": "[4]; single doses, 0.7 to 3 mg much lower dose-normalized levels", "value": "substantial non-linearity"}, {"measurement": "estimated target capacity", "setting": "[4]; two-compartment TMDD population pharmacokinetics model", "value": "~2.5", "unit": "mg"}, {"measurement": "Whole-body fat content LSM", "setting": "[5]; 1 mg/kg QD + CORT, Day 14", "value": "0.121^a"}, {"measurement": "Whole-body muscle content LSM", "setting": "[5]; 1 mg/kg QD + CORT, Day 14", "value": "0.82^a"}, {"measurement": "HOMA-IR LSM", "setting": "[5]; 1 mg/kg QD + CORT, Day 15", "value": "3.73ª mmol glucose/μU insulin"}, {"measurement": "Whole-body fat content LSM", "setting": "[5]; 1 mg/kg QD + CORT, Day 28", "value": "0.142^ab"}, {"measurement": "Whole-body muscle content LSM", "setting": "[5]; 1 mg/kg QD + CORT, Day 28", "value": "0.77^a"}, {"measurement": "HOMA-IR LSM", "setting": "[5]; 1 mg/kg QD + CORT, Day 29", "value": "3.56^ab mmol glucose/μU insulin"}, {"measurement": "HOMA-IR LSM", "setting": "[5]; 1 mg/kg QD + CORT, Day 35", "value": "8.16^b mmol glucose/μU insulin"}, {"measurement": "Fat depot weight, Gonadal, Mean", "setting": "[5]; 1 mg/kg QD + CORT", "value": 10.60, "unit": "mg/g body weight"}, {"measurement": "Fat depot weight, Mesenteric, Mean", "setting": "[5]; 1 mg/kg QD + CORT", "value": 6.46, "unit": "mg/g body weight"}, {"measurement": "Fat depot weight, Retroperitoneal, Mean", "setting": "[5]; 1 mg/kg QD + CORT", "value": 3.33, "unit": "mg/g body weight"}, {"measurement": "Fat depot weight, Subcutaneous, Mean", "setting": "[5]; 1 mg/kg QD + CORT", "value": 4.04, "unit": "mg/g body weight"}, {"measurement": "Muscle weight, Quadriceps, Mean", "setting": "[5]; 1 mg/kg QD + CORT", "value": 3.98, "unit": "mg/g body weight"}, {"measurement": "Muscle weight, Tibialis anterior, Mean", "setting": "[5]; 1 mg/kg QD + CORT", "value": 1.60, "unit": "mg/g body weight"}, {"measurement": "Whole-body fat content LSM", "setting": "[5]; 10 mg/kg BID + CORT, Day 14", "value": "0.064^b"}, {"measurement": "Whole-body muscle content LSM", "setting": "[5]; 10 mg/kg BID + CORT, Day 14", "value": "0.89^b"}, {"measurement": "HOMA-IR LSM", "setting": "[5]; 10 mg/kg BID + CORT, Day 15", "value": "0.94^b mmol glucose/μU insulin"}, {"measurement": "Whole-body fat content LSM", "setting": "[5]; 10 mg/kg BID + CORT, Day 28", "value": "0.061^b"}, {"measurement": "Whole-body muscle content LSM", "setting": "[5]; 10 mg/kg BID + CORT, Day 28", "value": "0.86^b"}, {"measurement": "HOMA-IR LSM", "setting": "[5]; 10 mg/kg BID + CORT, Day 29", "value": "0.94^b mmol glucose/μU insulin"}, {"measurement": "HOMA-IR LSM", "setting": "[5]; 10 mg/kg BID + CORT, Day 35", "value": "2.16^b mmol glucose/μU insulin"}, {"measurement": "Fat depot weight, Gonadal, Mean", "setting": "[5]; 10 mg/kg BID + CORT", "value": 6.02, "unit": "mg/g body weight"}, {"measurement": "Fat depot weight, Mesenteric, Mean", "setting": "[5]; 10 mg/kg BID + CORT", "value": 4.73, "unit": "mg/g body weight"}, {"measurement": "Fat depot weight, Retroperitoneal, Mean", "setting": "[5]; 10 mg/kg BID + CORT", "value": 2.21, "unit": "mg/g body weight"}, {"measurement": "Fat depot weight, Subcutaneous, Mean", "setting": "[5]; 10 mg/kg BID + CORT", "value": 1.95, "unit": "mg/g body weight"}, {"measurement": "Muscle weight, Quadriceps, Mean", "setting": "[5]; 10 mg/kg BID + CORT", "value": 5.90, "unit": "mg/g body weight"}, {"measurement": "Muscle weight, Tibialis anterior, Mean", "setting": "[5]; 10 mg/kg BID + CORT", "value": 2.36, "unit": "mg/g body weight"}, {"measurement": "Whole-body fat content LSM", "setting": "[5]; 10 mg/kg QD + CORT, Day 14", "value": "0.061^b"}, {"measurement": "Whole-body muscle content LSM", "setting": "[5]; 10 mg/kg QD + CORT, Day 14", "value": "0.87^b"}, {"measurement": "HOMA-IR LSM", "setting": "[5]; 10 mg/kg QD + CORT, Day 15", "value": "1.41^b mmol glucose/μU insulin"}, {"measurement": "Whole-body fat content LSM", "setting": "[5]; 10 mg/kg QD + CORT, Day 28", "value": "0.115^ab"}]}]}
